Patent US11472797B2, “Pesticidally active pyrazole derivatives” (SYNGENTA PARTICIPATIONS AG, priority 2017, dated 2022)

Assays:
[1] = tested on: Plutella xylostella (Diamond Back Moth); assay: Plutella xylostella artificial diet test; assay type: in vivo; conditions: 120 h, application rate 200 ppm, L2 larvae, 5 days after infestation, read-out: effect in at least one of the two categories (mortality or growth inhibition)
Procedure: Plutella xylostella (Diamond Back Moth):
24-well microtiter plates with artificial diet were treated with aqueous test solutions prepared from 10,000 ppm DMSO stock solutions by pipetting. After drying, the plates were infested with L2 larvae (10 to 15 per well). The samples were assessed for mortality and growth inhibition in comparison to untreated samples 5 days after infestation. The following compounds gave an effect of at least 80% in at least one of the two categories (mortality or growth inhibition) at an application rate of 200 ppm: 1, 2, 3, 4, 5, 6, 7, 8, 9, 11 and 12.

[2] = tested on: Spodoptera littoralis (Egyptian Cotton Leaf Worm); assay: Spodoptera littoralis cotton leaf disc spray test; assay type: in vivo; conditions: foliar, 72 h, application rate 200 ppm, L1 larvae, 3 days after infestation, read-out: control (at least one of mortality, anti-feedant effect, and growth inhibition)
Procedure: Spodoptera littoralis (Egyptian Cotton Leaf Worm)
Cotton leaf discs were placed on agar in 24-well microtiter plates and sprayed with aqueous test solutions prepared from 10,000 ppm DMSO stock solutions. After drying the leaf discs were infested with five L1 larvae. The samples were assessed for mortality, anti-feedant effect, and growth inhibition in comparison to untreated samples 3 days after infestation. Control of Spodoptera littoralis by a test sample is when at least one of mortality, anti-feedant effect, and growth inhibition is higher than the untreated sample.

[3] = tested on: Tetranychus urticae (Two-Spotted Spider Mite); assay: Tetranychus urticae bean leaf disc spray test; assay type: in vivo; conditions: foliar, 192 h
Procedure: Tetranychus urticae (Two-Spotted Spider Mite):
Bean leaf discs on agar in 24-well microtiter plates were sprayed with aqueous test solutions prepared from 10,000 ppm DMSO stock solutions. After drying the leaf discs were infested with a mite population of mixed ages. The samples were assessed for mortality on mixed population (mobile stages) 8 days after infestation.

[4] = tested on: Thrips tabaci (Onion Thrips); assay: Thrips tabaci sunflower leaf disc spray test; assay type: in vivo; conditions: foliar, 144 h, application rate 200 ppm, population of mixed ages, 6 days after infestation
Procedure: Thrips tabaci (Onion Thrips):
Sunflower leaf discs were placed on agar in 24-well microtiter plates and sprayed with aqueous test solutions prepared from 10,000 ppm DMSO stock solutions. After drying the leaf discs were infested with a thrips population of mixed ages. The samples were assessed for mortality 6 days after infestation.

[5] = tested on: Diabrotica Balteata, (Corn Root Worm); assay: Diabrotica balteata maize sprout spray test; assay type: in vivo; conditions: 96 h, application rate 200 ppm, L2 larvae, 4 days after infestation, read-out: effect in at least one of the two categories (mortality or growth inhibition)
Procedure: Diabrotica Balteata, (Corn Root Worm) Maize sprouts, placed on an agar layer in 24-well microtiter plates were treated with aqueous test solutions prepared from 10,000 ppm DMSO stock solutions by spraying. After drying, the plates were infested with L2 larvae (6 to 10 per well). The samples were assessed for mortality and growth inhibition in comparison to untreated samples 4 days after infestation. The following compounds gave an effect of at least 80% in at least one of the two categories (mortality or growth inhibition) at an application rate of 200 ppm: 1, 2, 3, 5 and 6.

[6] = tested on: Euschistus heros (Neotropical Brown Stink Bug); assay: Euschistus heros soybean leaf spray test; assay type: in vivo; conditions: 120 h, application rate 200 ppm, N2 nymphs, 5 days after infestation, read-out: effect in at least one of the two categories (mortality or growth inhibition)
Procedure: Euschistus heros (Neotropical Brown Stink Bug)
Soybean leaves on agar in 24-well microtiter plates were sprayed with aqueous test solutions prepared from 10,000 ppm DMSO stock solutions. After drying the leaves were infested with N2 nymphs. The samples were assessed for mortality and growth inhibition in comparison to untreated samples 5 days after infestation. The following compounds gave an effect of at least 80% in at least one of the two categories (mortality or growth inhibition) at an application rate of 200 ppm: 1

melting point [°C]	Structure (SMILES)	percent effect (mortality or growth inhibition) at 200 ppm [1] [%]	mortality at 200 ppm [2] [%]	mortality at 200 ppm [3] [%]	mortality at 200 ppm [4] [%]	percent effect (mortality or growth inhibition) at 200 ppm [5] [%]	percent effect (mortality or growth inhibition) at 200 ppm [6] [%]
–	CCN(C(=O)c1cc(-c2cc(-c3c(C(F)(F)F)c(OC(F)(F)C(F)C(F)(F)F)nn3C)no2)sc1Cl)C1(C#N)CC1 (stereo not shown) [Example 12, 2-chloro-N-(1-cyanocyclopropyl)-N-ethyl-5-[3-[5-(1,1,2,3,3,3-hexafluoropropoxy)-2-methyl-4-(trifluoromethyl)pyrazol-3-yl]isoxazol-5-yl]thiophene-3-carboxamide]	≥ 80	≥ 80	–	–	–	–
–	CN(C(=O)c1cc(-c2cc(-c3c(C(F)(F)F)c(OC(F)(F)C(F)C(F)(F)F)nn3C)no2)sc1C#N)C1CC1 (stereo not shown) [Example 2, 2-cyano-N-cyclopropyl-5-[3-[5-(1,1,2,3,3,3-hexafluoropropoxy)-2-methyl-4-(trifluoromethyl)pyrazol-3-yl]isoxazol-5-yl]-N-methyl-thiophene-3-carboxamide]	≥ 80	–	≥ 80	≥ 80	≥ 80	–
–	CN(C(=O)c1cc(-c2cc(-c3c(C(F)(F)F)c(OC(F)(F)C(F)C(F)(F)F)nn3C)no2)sc1Cl)C1CC1 (stereo not shown) [Example 8, 2-chloro-N-cyclopropyl-5-[3-[5-(1,1,2,3,3,3-hexafluoropropoxy)-2-methyl-4-(trifluoromethyl)pyrazol-3-yl]isoxazol-5-yl]-N-methyl-thiophene-3-carboxamide]	≥ 80	≥ 80	–	–	–	–
–	CN(C(=O)c1cc(-c2cc(-c3c(C(F)(F)F)c(OC(F)(F)C(F)C(F)(F)F)nn3C)no2)sc1Cl)C1(C#N)CC1 (stereo not shown) [Example 11, 2-chloro-N-(1-cyanocyclopropyl)-5-[3-[5-(1,1,2,3,3,3-hexafluoropropoxy)-2-methyl-4-(trifluoromethyl)pyrazol-3-yl]isoxazol-5-yl]-N-methyl-thiophene-3-carboxamide]	≥ 80	≥ 80	–	–	–	–
–	Cn1nc(OC(F)(F)C(F)C(F)(F)F)c(C(F)(F)F)c1-c1cc(-c2cc(C(=O)NC3CC3)c(Cl)s2)on1 (stereo not shown) [Example 7, 2-chloro-N-cyclopropyl-5-[3-[5-(1,1,2,3,3,3-hexafluoropropoxy)-2-methyl-4-(trifluoromethyl)pyrazol-3-yl]isoxazol-5-yl]thiophene-3-carboxamide]	≥ 80	≥ 80	–	–	–	–
–	CCN(C(=O)c1cc(-c2cc(-c3c(C(F)(F)F)c(OC(F)(F)C(F)C(F)(F)F)nn3C)no2)sc1Cl)C1CC1 (stereo not shown) [Example 9, 2-chloro-N-cyclopropyl-N-ethyl-5-[3-[5-(1,1,2,3,3,3-hexafluoropropoxy)-2-methyl-4-(trifluoromethyl)pyrazol-3-yl]isoxazol-5-yl]thiophene-3-carboxamide]	≥ 80	≥ 80	–	–	–	–
–	CN(C(=O)c1cc(-c2cc(-c3c(C(F)(F)F)c(OC(F)(F)C(F)C(F)(F)F)nn3C)no2)sc1C#N)C1(C#N)CC1 (stereo not shown) [Example 5, 2-cyano-N-(1-cyanocyclopropyl)-5-[3-[5-(1,1,2,3,3,3-hexafluoropropoxy)-2-methyl-4-(trifluoromethyl)pyrazol-3-yl]isoxazol-5-yl]-N-methyl-thiophene-3-carboxamide]	≥ 80	≥ 80	–	≥ 80	≥ 80	–
218 to 219	Cn1nc(OC(F)(F)C(F)C(F)(F)F)c(C(F)(F)F)c1-c1cc(-c2cc(C(=O)NC3(C#N)CC3)c(Cl)s2)on1 (stereo not shown) [Example 10, 2-chloro-N-(1-cyanocyclopropyl)-5-[3-[5-(1,1,2,3,3,3-hexafluoropropoxy)-2-methyl-4-(trifluoromethyl)pyrazol-3-yl]isoxazol-5-yl]thiophene-3-carboxamide]	–	–	–	–	–	–
–	CCN(C(=O)c1cc(-c2cc(-c3c(C(F)(F)F)c(OC(F)(F)C(F)C(F)(F)F)nn3C)no2)sc1C#N)C1(C#N)CC1 (stereo not shown) [Example 6, 2-cyano-N-(1-cyanocyclopropyl)-N-ethyl-5-[3-[5-(1,1,2,3,3,3-hexafluoropropoxy)-2-methyl-4-(trifluoromethyl)pyrazol-3-yl]isoxazol-5-yl]thiophene-3-carboxamide]	≥ 80	≥ 80	–	≥ 80	≥ 80	–
–	CCN(C(=O)c1cc(-c2cc(-c3c(C(F)(F)F)c(OC(F)(F)C(F)C(F)(F)F)nn3C)no2)sc1C#N)C1CC1 (stereo not shown) [Example 3, 2-cyano-N-cyclopropyl-N-ethyl-5-[3-[5-(1,1,2,3,3,3-hexafluoropropoxy)-2-methyl-4-(trifluoromethyl)pyrazol-3-yl]isoxazol-5-yl]thiophene-3-carboxamide]	≥ 80	–	–	≥ 80	≥ 80	–
–	Cn1nc(OC(F)(F)C(F)C(F)(F)F)c(C(F)(F)F)c1-c1cc(-c2cc(C(=O)NC3(C#N)CC3)c(C#N)s2)on1 (stereo not shown) [Example 4, 2-cyano-N-(1-cyanocyclopropyl)-5-[3-[5-(1,1,2,3,3,3-hexafluoropropoxy)-2-methyl-4-(trifluoromethyl)pyrazol-3-yl]isoxazol-5-yl]thiophene-3-carboxamide]	≥ 80	–	–	≥ 80	–	–
–	Cn1nc(OC(F)(F)C(F)C(F)(F)F)c(C(F)(F)F)c1-c1cc(-c2cc(C(=O)NC3CC3)c(C#N)s2)on1 (stereo not shown) [Example 1, 2-cyano-N-cyclopropyl-5-[3-[5-(1,1,2,3,3,3-hexafluoropropoxy)-2-methyl-4-(trifluoromethyl)pyrazol-3-yl]isoxazol-5-yl]thiophene-3-carboxamide]	≥ 80	≥ 80	≥ 80	≥ 80	≥ 80	≥ 80
